Laboratory results: patent publication US7781580B2, “Stilbene derivatives as new cancer therapeutic agents” (Virginia Commonwealth University, priority 2007, dated 2010)

Assays:
[1] = tested on: c-kit positive marrow progenitor cells; assay: bone marrow c-kit-positive progenitor cells: cell cycle and colony forming assay; type: cell-based
Description: FIG. 16. (a) Effect of stilbenes in normal bone marrow progenitor cells. c-kit-positive bone marrow mononuclear cells were isolated for incubation with stilbenes 4a or 4c at 0.1 or 0.5 […] for 16 hours. Cells were harvested for fixation and PI staining. Cell cycle analysis and quantification of the subG0/1 population were analyzed by FACScan flow cytometry. The percentages of the apoptotic population were indicated. Shown are the representatives of two independent experiments. (b) Effect of stilbenes in HL60 cells as positive control. HL60 cells were treated with stilbenes 4a or 4c in the same medium as the positive control. (c) Colony forming assay of the stilbene-treated c-kit-positive cells. A fraction of the cells in (a) were diluted and plated on methylcellulose medium at various densities. Cells were incubated for 14 days and the grossly visible colonies were counted. […] Isolated bone marrow c-kit-positive progenitor cells were incubated with DMSO or stilbenes 4a or 4c at 0.1 or 0.5 μM for 16 hours and injected into tail veins of CD45 congenic mice lethally irradiated with 1200 cGy. Mice were monitored for survival and lineage-specific donor engraftment by flow cytometry analysis of peripheral blood. The percentage of donor cells in T, B, and granulocytic series of the recipients were studied at 7 and 14 weeks after transplantation. Stilbene treated c-Kit progenitor cells had the same percentage as the DMSO treated control in all series.
Mouse bone marrow was harvested from femur and tibia of […], subjected to red blood cell lysis, and labeled with anti-c-kit (3C11; CALTAG Laboratories, Burlingame, Calif.) and streptavidin-conjugated microbeads for MACS separation (Miltenyi Biotech, Auburn, Calif.). The c-kit positive marrow progenitor cells were incubated in Iscove's Modified Eagle's Media supplemented with 30% fetal bovine serum, erythropoietin, stem cell factor and interleukin-3 with or without stilbenes 4a or 4c. The ability of long-term proliferation of the c-kit-positive cells was evaluated with colony forming assay. Cells were first treated with DMSO, stilbenes 4a or 4c for 5 h and a fraction of the cells (4000 cells) were plated in the same enriched culture media with methylcellulose for colony forming assays. The grossly visible colonies were counted after 14 days of incubation.

[2] = tested on: tubulin (colchicine site); assay: [3H]-colchicine competition for binding tubulin; details: 20 min, 37° C.
Description: FIG. 3a-d. […] (a) Effect of stilbene 4a. Pure tubulin was incubated with various concentrations of stilbene 4a, 10 μM nocodazole, and 10 μM paclitaxel in the polymerization buffer. The OD at 340 nm was monitored every minute by SpectraMAX 250 and plotted against time. (b) Effect of stilbene 4c. (c) Comparison of same concentrations of stilbenes 4a, 4a trans, 4c and 4c trans with control. […] The radioactivity of the tubulin was counted. […] All experiments were done in triplicates.
Tubulin retained in the Microcon was washed three times with PBS. The radioactivity of the final concentrated tubulin was determined by a scintillation counter.

[3] = tested on: SNU423 hepatocellular carcinoma cells; assay: Alamar Blue cell growth inhibition, SNU423; type: cell-based; details: SNU423
Description: Cell growth was measured by Alamar Blue™ staining and the OD absorbance at 570 and 600 nm was determined by a microplate reader. The percentage of cell growth inhibition was calculated and compared with the control cells that were treated with 0.1% DMSO, the vehicle for the stilbene compounds.
Various cancer cell lines were grown in 96-well plates for drug sensitivity assays. Once cells achieved 50% confluence, the incubation media was changed to the same cell growth media with different concentrations of the tested compounds or vehicle alone. Cells were then incubated for 48 hours before the cell growth inhibition study. To determine the degree of cell growth inhibition, 1/10 volume of Alamar Blue™ solution was added to each well and optical density (OD) at 570 and 600 nm was determined. The percentage of growth inhibition was calculated according to the manufacturer's formula as follows: The percentage of growth is [(117216×A570)−(80586×A600)]/[(117216×A^o570)−(80586×A^o600)]×100. In this formula, A570 is the absorbance of the treated samples at 570 nm; A600 is the absorbance of the treated samples at 600 nm; A^o570 is the absorbance of the […] samples at 570 nm; and A^o600 is the absorbance of the untreated samples at 600 nm. The two constants, 117216 and 80586, are the extinction coefficients of Alamar Blue™ at 570 and 600 nm respectively. Each concentration was repeated in triplicate to minimize the error.
We first tested the cytotoxic effect of various stilbene derivatives for their in vitro efficacy of suppressing tumor cell proliferation. Cells were first plated in 96-well plates at 50% confluence and treated with 0, 0.01, 0.03, 0.1, 0.3, 1.0, 3.0, 10 μM concentrations of stilbene derivatives for 48 hours in triplicate. Alamar Blue™ reagent was added into each well at 1/10 volume and incubated for 2 hours before quantification of the absorbance at 570 and 600 nm.

Tubulin (>99% pure) = assay: tubulin polymerization assay (OD 340 nm); type: biochemical; details: OD340 nm; nocodazole and paclitaxel 10 μM
Description: FIG. 3a-d. Stilbenes inhibit tubulin polymerization. (a) Effect of stilbene 4a. Pure tubulin was incubated with various concentrations of stilbene 4a, 10 μM nocodazole, and 10 μM paclitaxel in the polymerization buffer. The OD at 340 nm was monitored every minute by SpectraMAX 250 and plotted against time. (b) Effect of stilbene 4c. (c) Comparison of same concentrations of stilbenes 4a, 4a trans, 4c and 4c trans with control. […] Tubulin was incubated with [^3H]-colchicine and various concentrations of different stilbenes for 20 min. Tubulin was then separated from the unbound [^3H]-colchicine by Microcon-30 and washed three times with PBS. The radioactivity of the tubulin was counted. […] All experiments were done in triplicates.
The tubulin polymerization assay kit was purchased from Cytoskeleton (Denver, Colo.). Tubulin (>99% pure) was mixed with general tubulin buffer (GTB, 80 mM PIPES pH 6.9, 2 mM MgCl2, 0.5 mM EGTA, and 1 mM GTP) in a 96-well plate at 37° C. Absorbance at 340 nm was measured every 1 min for 60 min by SpectraMAX 250 (Molecular Devices, Sunnyville, Calif.). Analysis of the results was performed by SoftMAX Pro version 1.2.0 from the same company.

[4] = tested on: UCI101 ovarian cancer cells; assay: Western blot of signal transduction events, UCI101; type: cell-based
Description: All these agents are microtubule interfering agents but with different binding sites. Cells were harvested at 0, 4, 8, 16 and 36 hours after drug treatment for Western blot analysis. […] Phosphorylation of both Cdc25C and Cdc2 disappeared after 16 hours and slightly recovered at 36 hours. […] Akt phosphorylation decreased after 16 hours of treatment.
In order to understand the mechanism of resistance of stilbenes, various signal transduction pathways were investigated to examine how cells respond to stilbene treatment. UCI101 ovarian cancer cells were treated with stilbenes 4a, 4c or paclitaxel (Taxol) at 0.1 μM for 0, 4, 8, 16 and 36 hours. Cells were harvested for Western blotting. Changes in the kinases involved in cell cycle progression from G2-M transition were first determined in Cdc2, Cdc25c, and mitotic spindle check point regulator BubR1. […] 36 hours after treatment, rephosphorylation of Cdc2 was observed. […] The higher molecular weight isomer of Cdc25c, the mitotic form, increased at 16 and 36 hours. […] A similar study was then performed with other microtubule interfering agents such as combretastatin A4, 13a and vincristine for comparison. A similar trend was observed among these three microtubule interfering agents (FIG. 18).

[5] = tested on: c-kit-positive progenitor cells (engraftment); assay: bone marrow transplantation of stilbene-treated progenitor cells; type: in vivo, mice; details: cells incubated at 0.1 or 0.5 μM for 16 hours
Description: FIG. 16. (a) Effect of stilbenes in normal bone marrow progenitor cells. c-kit-positive bone marrow mononuclear cells were isolated for incubation with stilbenes 4a or 4c at 0.1 or 0.5 […] for 16 hours. Cells were harvested for fixation and PI staining. Cell cycle analysis and quantification of the subG0/1 population were analyzed by FACScan flow cytometry. The percentages of the apoptotic population were indicated. Shown are the representatives of two independent experiments. (b) Effect of stilbenes in HL60 cells as positive control. HL60 cells were treated with stilbenes 4a or 4c in the same medium as the positive control. (c) Colony forming assay of the stilbene-treated c-kit-positive cells. […] Cells were incubated for 14 days and the grossly visible colonies were counted. […] Mice were monitored for survival and lineage-specific donor engraftment by flow cytometry analysis of peripheral blood. […]
C57BL/6J (H2b, CD45.2) mice served as bone marrow donors and were between 6-10 weeks of age. […] Peripheral blood engraftment in recipient mice was assessed by flow cytometry analysis for CD3+ (145-2C11; BD Biosciences, San Jose, Calif.) T-cells, B220+ (RA3-6B2) B-cells, Mac1+ (M1/70.15) monocytes, and Gr1+ (8C5) granulocytes and distinguished between donor versus recipient with anti-CD45.1 (A20) and anti-CD45.2 (104) monoclonal antibodies.

COc1cc(/C=C\c2ccc(OC)c(O)c2)cc(OC)c1 [4c, (Z)5-[2-(3,5-Dimethoxy-phenyl)-vinyl]-2-methoxy-phenol]
cell cycle of marrow progenitor cells at 0.1 μM [1]: not affected
toxicity to normal bone marrow progenitor cells versus leukemia cells [1]: much less toxic to normal bone marrow progenitor cells
cell cycle of marrow progenitor cells at 0.5 μM ([1]; BALB/c, mouse, 16 h, 0.5 μM): small increase in subG0/1 and G2 population
competition with [3H]-colchicine for tubulin [2]: dose-dependent suppression of tubulin-colchicine interaction
relative potency [3]: much more potent than the trans counterparts
effect on tubulin polymerization (Tubulin (>99% pure)): suppressed tubulin polymerization in a dose-dependent manner but less potent than stilbene 4a
phosphorylation of Stat3 ([4]; 0.1 μM): transient increase in phosphorylation at 4 and 8 hours
phosphorylation of Cdc2 at Tyr15 ([4]; 0.1 μM, 16 hours): decreased dramatically
phosphorylation of Chk1 ([4]; 36 hours): do not cause more phosphorylation of Chk1
radioprotection of lethally irradiated mice by treated progenitor cells [5]: all mice were rescued from lethal irradiation
